Columns and labels:
[1] = system: VEGFR2 phosphorylation at Y1175 in CAD cells; experiment: In cell western for inhibition of VEGFR2 activation by VEGF-A165; type: cell-based, mouse; settings: compounds at 12.5 μM, 1 nM VEGF-A165, 1 hour
VSV-eGFP-SARS-CoV-2 = type: cell-based, vesicular stomatitis virus; settings: 25 µM

## NC(N)=NCCC[C@H](NC(=O)c1sccc1NS(=O)(=O)c1cccc2nsnc12)C(=O)O [Compound A]
[1]
  block of VEGF-A stimulated increased phosphorylation of VEGFR2 (pY1175): blocked
VSV-eGFP-SARS-CoV-2
  inhibition of VSV-eGFP-SARS-CoV-2 entry into cells: ineffective
